pIC50: −log10 of the molar value.
Experiments:
Type in all cases: cell-based
cancer cell lines = assay: In vitro colorimetric cell death assay (MTT), overall statement
Protocol: (§1) It's an in vitro colorimetric assay for assessing cell viability where the cells are grown in Two-dimensional surface.
(§2) An exemplary procedure for the assay follows. Cancer cells and normal cells were plated in a 96 well plate as per predetermined plating efficiency. The plate was incubated for 24 hours in a 5% CO2 atmosphere at 37 degrees Celsius, a range of concentrations of the compounds I-1, I-2 and I-3 as well as cisplatin (known chemotherapeutic agents) were added to the separate wells, the plate was incubated further for 48 hours in a 5% CO2 atmosphere, the plate was centrifuged twice at 3000 rpm for 3 minutes, the supernatant fluid was discarded, 100 uL of 0.5 mg/mL MTT solution was added and the plate was incubated for 4 hours in a 5% CO2 atmosphere at 37 degrees Celsius. The plate was then centrifuged twice at 3000 rpm for 3 minutes, supernatant, was aspirated very carefully, 200 uL DMSO was added to each well to solubilize MTT crystals and mixed well by shaking the plate, the plate was incubated for 10 minutes in a 5% CO2 atmosphere at 37 degrees Celsius, the plate placed on the shaker of an ELISA plate reader and the absorbance at 570 nm was measured, then the percentage of viable cells remaining was calculated by first subtracting the background absorbance then comparing to the absorbance of a non-drug-treated cell sample, and the results were plotted on a graph to determine the IC50 for the compounds and cisplatin.

DU145 [1] = assay: In vitro colorimetric cell death assay (MTT); settings: Homo sapiens, DU-145; DU145, MTT, 48 hours; read-out: IC 50
Protocol: as §1, §2

LNCaP = assay: In vitro colorimetric cell death assay (MTT); settings: Homo sapiens, 48 hours
Protocol: as §1, §2

MDAMB231 [2] = assay: In vitro colorimetric cell death assay (MTT); settings: Homo sapiens, MDA-MB-231, 48 hours
Protocol: as §1, §2

PC3 [3] = assay: In vitro colorimetric cell death assay (MTT); settings: Homo sapiens, PC-3, 48 hours
Protocol: as §1, §2

T47D [4] = assay: In vitro colorimetric cell death assay (MTT); settings: Homo sapiens, 48 hours
Protocol: as §1, §2

DU145 [5] = assay: In vitro soft agar colony forming growth assay; settings: Homo sapiens, DU-145, 168 h, one week
Protocol: (§3) The Soft Agar Assay for Colony Formation is considered the most stringent assay for detecting malignant transformation of cells. In this assay the cells are cultured in medium with low percentage of agar.
(§4) An exemplary procedure for the assay follows.

MDAMB231 [6] = assay: In vitro soft agar colony forming growth assay; settings: Homo sapiens, MDA-MB-231, 168 h; MDAMB231, soft agar, one week; read-out: IC 50
Protocol: as §3, §4

PC3 [7] = assay: In vitro soft agar colony forming growth assay; settings: Homo sapiens, PC-3, 168 h, one week
Protocol: as §3, §4

T47D [8] = assay: In vitro soft agar colony forming growth assay; settings: Homo sapiens, 168 h, one week
Protocol: as §3, §4

[9] = system: breast cancer cells MCF-7; assay: In vitro 3D primary sphere forming stem cell assay
Protocol: (§5) This assay measures the ability of cancer stem cells to form spheres in a serum free media where the spheres are in a suspended form. Through this assay we evaluated the potency of the compounds of the invention to kill cancer stem cells in comparison with the known chemotherapeutic agent Cisplatin.
(§6) An exemplary procedure for the assay follows. Cells were grown in three dimensions on a plastic substrate, harvested in suspension in serum-free media, then the cells in the sample were trypsinized and a single cell suspension was formed by passing through a cell strainer. The cells were diluted according to the predetermined plating efficiency for the cell line being studied by suspending the cells in stem cell culture medium. 100 uL of this suspension was added into each well of a 96 well suspension plate, and the plate was incubated at 37 degrees Celsius in 5% CO2 atmosphere for 24 hours, then 2 uL of appropriate concentrations of the compounds of the invention and cisplatin were added into each respective well along with 100 uL of stem cell culture medium, and the plates were incubated at 37 degrees Celsius under 5% CO2 atmosphere for 72 hours. 2.5 uL of the compounds of the invention and cisplatin were added to each respective well along with 50 uL of stem cell culture medium and then the plates were incubated at 37 degrees Celsius under 5% CO2 atmosphere for 72 hours. 3 uL of appropriate concentrations of the compounds of the invention and cisplatin were added to each respective well along with 50 uL of stem cell culture medium and then the plates were incubated at 37 degrees Celsius under 5% CO2 atmosphere for 72 hours, then the spheres formed were observed under a microscope then counted and scored by size.
(§7) Results of the in vitro 3D sphere forming stem cell assay are set forth in a tabular manner. The number in each box is the total number of spheres formed in the presence of either cisplatin or compound I-2 or compound I-3 at each drug concentration. GC refers to a growth control performed in the absence of drug or solvent (DMSO). GCD refers to a growth control performed in the absence of drug, but in the presence of DMSO.

[10] = system: breast cancer cells MDA MB 231; assay: In vitro 3D primary sphere forming stem cell assay
Protocol: as §5, §6, §7

COc1cc2c(OC3OCC(O)C(O)C3O)c3c(c(-c4ccc5c(c4)OCO5)c2cc1OC)C(=O)OC3 (stereo not shown) [I-3, 9-(1,3-benzodioxol-5-yl)-4-[(3,4,5-trihydroxytetrahydro-2H-pyran-2-yl)oxy]naphtho-6,7-dimethoxynaphtho[2,3-c]furan-1(3H)-one]
anticancer activity in cancer cell lines as compared to cisplatin (cancer cell lines): high anticancer activity | pIC50 (DU145 [1]): 5.02 | pIC50 (LNCaP): 5.50 | pIC50 (MDAMB231 [2]): 5.00 | pIC50 (PC3 [3]): 4.87 | pIC50 (T47D [4]): 4.68 | pIC50 (DU145 [5]): 6.18 | pIC50 (MDAMB231 [6]): 6.26 | pIC50 (PC3 [7]): 6.07 | pIC50 (T47D [8]): 6.15 | numbers of primary spheres formed, compared with cisplatin ([9]; MCF-7): significantly less | # of 3D Primary Spheres Formed of Cells MCF-7 (±SD) ([9]; final conc. 0.125 μM): 74(±10) | # of 3D Primary Spheres Formed of Cells MCF-7 (±SD) ([9]; final conc. 1.25 μM): 57(±5) | # of 3D Primary Spheres Formed of Cells MCF-7 (±SD) ([9]; final conc. 12.5 μM): 48(±10) | # of 3D Primary Spheres Formed of Cells MCF-7 (±SD) ([9]; final conc. 125 μM): 28(±6) | # of 3D Primary Spheres Formed of Cells MCF-7 (±SD) ([9]; final conc. 1250 μM): 0(±0) | numbers of primary spheres formed, compared with cisplatin ([10]; MDA MB 231): significantly less | # of 3D Primary Spheres Formed of Cells MDA MB231 (±SD) ([10]; final conc. 0.125 μM): 54(±5) | # of 3D Primary Spheres Formed of Cells MDA MB231 (±SD) ([10]; final conc. 1.25 μM): 38(±5) | # of 3D Primary Spheres Formed of Cells MDA MB231 (±SD) ([10]; final conc. 12.5 μM): 31(±5) | # of 3D Primary Spheres Formed of Cells MDA MB231 (±SD) ([10]; final conc. 125 μM): 9(±2) | # of 3D Primary Spheres Formed of Cells MDA MB231 (±SD) ([10]; final conc. 1250 μM): 0(±0)
